Assays:
[1] = 14-day Q3D oral toxicology study in cynomolgus monkeys; conditions: cynomolgus monkey, in vivo; cynomolgus monkeys; 160, 500 or 2000 mg/kg PO Q3D for 14 days (5 doses); read-out: no-observed-adverse-effect level (NOAEL)
Method: (§1) In cynomolgus monkeys administered 160, 500, or 2000 mg/kg PO Q3D for 14 days (5 doses total), the NOAEL was 160 mg/kg.
(§2) Precautions related to cardiovascular safety in this clinical study included frequent measurement of vital signs (e.g., blood pressure, pulse, and body temperature) and frequent electrocardiograms (ECGs).

[2] = test system: cynomolgus monkey; assay: as above; conditions: in vivo, po, 2000 mg/kg
Method: as §1, §2

[3] = test system: rodent models of stress-induced depressive behavior; assay: Preclinical rodent models of stress-induced depressive behavior; format: in vivo; conditions: head-to-head with ketamine
Source text: (§3) Compound A [(S)-2-amino-5,5-difluoro-4,4-dimethylpentanoic acid] is a novel, orally bioavailable, specific, small molecule that activates mTORC1 pathway signaling in the brain, including those centers responsible for mood.

[4] = test system: mTORC1; assay: mTORC1 downstream signaling and synaptic changes in medial pre-frontal cortex of rats; format: in vivo, rat; conditions: layer V pyramidal neurons
Source text: as §3

[5] = Example 2: single-dose pharmacokinetics in plasma and CSF; format: in vivo, human; conditions: healthy males, single oral 2400 mg
Method: Pharmacokinetics Endpoints: The following PK parameters for compound A were determined in serum and CSF, as appropriate: • Cmax: Maximum compound A concentration determined directly from the concentration-time profile • Tmax: Time of maximum compound A concentration determined directly from the concentration-time profile • AUClast: Area under the concentration-time curve from pre-dose (time 0) to the time of the last quantifiable concentration (tlast) calculated using the linear-log trapezoidal rule • AUCinf: Area under the concentration-time curve from pre-dose (time 0) extrapolated to infinite time (AUClast+Clast/λz) calculated using the linear-log trapezoidal rule • AUC% extrap: Percentage of AUCinf that is due to extrapolation beyond tlast • λz: The terminal elimination rate constant determined by selection of at least 3 data points on the terminal phase of the concentration-time curve. • t1/2: Terminal elimination half-life calculated as: ln 2/λz • CL/F: Apparent body clearance calculated as: Dose/AUCinf • Vz/F: Apparent volume of distribution calculated as: Dose/(AUCinf*λz) • MRT: Mean residence time (of the unchanged drug in the systemic circulation) as: AUMC/AUC • RA (AUC): Accumulation CSF/plasma ratio calculated as the ratios of the AUCinf,ss at steady state and AUCτ,sd after single dosing calculated as: AUCτ,ss/AUCτ,sd • RA (Cmax): Accumulation CSF/plasma ratio calculated as ratio of Cmax,ss at steady state and Cmax,sd after single dosing calculated as: Cmax,ss/Cmax,sd • CSF compound A concentrations over time and the ratio compared with time-matched plasma concentrations were also evaluated Overall Study Design: […]
Pharmacokinetic, Metabolomic, and Proteomic Variables: Blood and CSF samples for the PK, metabolomics, and proteomic analysis of compound A were collected at various time points and were processed and analyzed by a validated method for determining concentrations of compound A.

With `CC(C)(C[C@H](N)C(=O)O)C(F)F` [Compound A, (S)-2-amino-5,5-difluoro-4,4-dimethylpentanoic acid] the NOAEL at 14 days [1] was 160 mg/kg, the “adverse effects at 2000 mg/kg” value [2] was “dehydration in one animal, likely secondary to vomiting, and increased aspartate aminotransferase (AST) in one animal” and the “adverse effects in rodent models” value [3] was “without producing significant adverse effects”. For the same compound, the antidepressant effects [3] was “rapid antidepressant effects comparable to those of ketamine”, the “mTORC1 downstream signaling, synaptic protein expression, synaptic arborization” value [4] was “increase in mTORC1 downstream signaling, synaptic protein expression (e.g., GluR1 and synapsin), and synaptic arborization” and the “uptake into circulation and brain exposure” value [5] was “rapid uptake of compound A into circulation with rapid brain exposure”. The “human CSF levels” value ([5]; FIG. 8) was “consistent with rodent levels at the effective dose” and the half-life ([5]; male, human, in vivo) was 10 to 13 h.

From patent US11723890B2, “Methods of treatment using an mTORC1 modulator” (Navitor Pharmaceuticals, Inc., priority 2019, dated 2023)
